The text below walks through data of patent US20030013660A1, “Dioxolane analogs for improved inter-cellular delivery” (Shire BioChem Inc., priority 2000, published 2003).

Common to all, as to test: 3H-TdR incorporation at 72 hr (24 hr drug exposure, wash, 48 hr)
Assay [1] has as its system H-460. Format: cell-based, Human. Particulars: Homo sapiens, NCI-H460, read-out: IC50 in μM (3H-TdR incorporation at 72 hr) H-460 24 h, H-460 Human Lung Carcinoma, 72 hr assay. Here is the method:
(§1) Exposition of 24 hr to drug, wash, incubated for another 48 hr (total of 72 hr assay)
(§2) (3H-Thymidine Incorporation Assay)

For assay [2], the system named is MCF-7. Format: cell-based, Human. The settings on record: Homo sapiens, MCF7, read-out: IC50 in μM (3H-TdR incorporation at 72 hr) MCF-7 24 h, MCF-7 Human Breast Carcinoma, 72 hr assay. Here is the method:
as §1, §2

For assay [3], the system named is SF-268. Format: cell-based, Human. Here is the method:
as §1, §2

The test system of assay [4] is CEM/dCK-. Format: cell-based. The settings on record: for IC50: Homo sapiens, CCRF-CEM, read-out: IC50 in μM (3H-TdR incorporation at 72 hr) CEM/dCK- 24 h, CCRF-CEM deoxycytidine kinase-deficient, 24 h drug exposure, 72 hr assay; for Factor* (Resistance Factor = Ratio of dCK- on Wild-type CCRF-CEM): ratio of IC50 CEM/dCK- to IC50 CCRF-CEM. Here is the method:
as §1, §2

For assay [5], the system named is CCRF-CEM. In kind it is cell-based. Particulars: Homo sapiens, CCRF-CEM, read-out: IC50 in μM (3H-TdR incorporation at 72 hr) CCRF-CEM 24 h, CCRF-CEM T-cell Leukemia, 72 hr assay. Here is the method:
as §1, §2

The mark [6] stands for this setting: Homo sapiens, SF-268, read-out: IC50 in μM (3H-TdR incorporation at 72 hr) SF-268 24 h, SF-268 Human Central Nervous System Tumor, 24 h drug exposure, 72 hr assay.

Molecules are shown by their SMILES. Where two headings read alike, the source gives them in different places. Where only a bound is given, the exact number is not on record here.

`CN(C)CCCCOC(=O)Nc1ccn([C@@H]2CO[C@H](CO)O2)c(=O)n1.O=C(O)C(F)(F)F` [Compound 169, [1-(2-HYDROXYMETHYL- [1,3]DIOXOLAN-4-YL)-2- OXO-1,2-DIHYDRO- PYRIMIDIN-4-YL]- CARBAMIC ACID 4- DIMETHYLAMINO-BUTYL ESTER TRIFLUOROACETIC ACID SALT]: the IC50 in assay [1] is 8.2 µM; in assay [2], 5.1 µM; in assay [3] (setting [6]) it was 7.1 µM; in assay [4] it was over 100 µM; in assay [5], 2 µM. In addition, in assay [4], the “Factor* (Resistance Factor = Ratio of dCK- on Wild-type CCRF-CEM)” value is over 50.

Consider `C#CCN(CC#C)c1ccn([C@@H]2CO[C@H](CO)O2)c(=O)n1` [Compound 171, (S,S) 4-(DI-PROP-2′- YNYL-AMINO)-1-(2″- HYDROXYMETHYL- [1,3]DIOXOLAN-4″-YL)- 1H-PYRIMIDIN-2-ONE], for which the IC50 in assay [1] is 45 µM; in assay [2], 41 µM; in assay [3] (setting [6]), 82 µM; in assay [4] it was over 100 µM; in assay [5] it was 38 µM. Moreover, in assay [4], the “Factor* (Resistance Factor = Ratio of dCK- on Wild-type CCRF-CEM)” value is given as over 2.6.

In the case of `C#CCOC[C@H]1OC[C@@H](n2ccc(N)nc2=O)O1` [Compound 173, (S,S)-4-AMINO-1-(2′- PROP-2′-YNYLOXYMETHYL- [1,3]DIOXOLAN-4′-YL)- 1H-PYRIMIDIN-2-ONE], the IC50 in assay [1] was 6.1 µM; in assay [2], 17 µM; in assay [3] (setting [6]), 2 µM; in assay [4], over 100 µM; in assay [5], 2.6 µM. The “Factor* (Resistance Factor = Ratio of dCK- on Wild-type CCRF-CEM)” value in assay [4] is over 38.

For the compound `COc1ccc(C(=O)Nc2ccn([C@@H]3CO[C@H](COC(=O)c4ccc(OC)cc4)O3)c(=O)n2)cc1` [Compound 174, 4-METHOXY-BENZOIC ACID 4-[4-(4-METHOXY- BENZOYLAMINO)-2-OXO-2H- PYRIMIDIN-1-YL]- [1,3]DIOXOLAN-2- YLMETHYL ESTER], the IC50 in assay [1] was 11 µM; in assay [2] it was 21 µM; in assay [3] (setting [6]), 38 µM; in assay [4], over 100 µM; in assay [5], 9 µM. In addition, the “Factor* (Resistance Factor = Ratio of dCK- on Wild-type CCRF-CEM)” value in assay [4] is given as over 11.

On to `COc1ccc(C(=O)Nc2ccn([C@@H]3CO[C@H](CO)O3)c(=O)n2)cc1` [Compound 175, N-[1-(2-HYDROXYMETHYL- [1,3]DIOXOLAN-4-YL)-2- OXO-1,2-DIHYDRO- PYRIMIDIN-4-YL]-4- METHOXY-BENZAMIDE], for which the IC50 in assay [1] is 6.3 µM; in assay [2], 3.1 µM; in assay [3] (setting [6]) it was 32 µM; in assay [4], over 100 µM; in assay [5], 3.5 µM. The “Factor* (Resistance Factor = Ratio of dCK- on Wild-type CCRF-CEM)” value in assay [4] was over 29.

As to `COC(OC)(OC)OC[C@H]1OC[C@@H](n2ccc(N)nc2=O)O1` [Compound 177, 4-AMINO-1-(2- TRIMETHOXYMETHOXYMETHYL -[1,3]DIOXOLAN-4-YL)- 1H-PYRIMIDIN-2-ONE], the IC50 in assay [1] is 0.19 µM; in assay [2], 0.22 µM; in assay [3] (setting [6]), 0.92 µM; in assay [4], over 100 µM; in assay [5], 0.095 µM. Besides, the “Factor* (Resistance Factor = Ratio of dCK- on Wild-type CCRF-CEM)” value in assay [4] is over 1052.

Regarding `CCOC[C@H]1OC[C@@H](n2ccc(N)nc2=O)O1` [Compound 178, (S,S)-4-AMINO-1-(2′- ETHOXYMETHYL- [1,3]DIOXOLAN-4′-YL)- 1H-PYRIMIDIN-2-ONE], the IC50 in assay [1] was 88 µM; in assay [2], 5.8 µM; in assay [3] (setting [6]) it was 41 µM; in assay [4] it was over 100 µM; in assay [5], 25 µM. Also, the “Factor* (Resistance Factor = Ratio of dCK- on Wild-type CCRF-CEM)” value in assay [4] is given as over 4.

Turning to `C=CCOC[C@H]1OC[C@@H](n2ccc(N)nc2=O)O1` [Compound 179, (S,S)-1-(2′- ALLYLOXYMETHYL- [1,3]DIOXOLAN-4′-YL)-4- AMINO-1H-PYRIMIDIN-2- ONE], the IC50 in assay [1] is 1.7 µM; in assay [2], 2.8 µM; in assay [3] (setting [6]) it was 0.56 µM; in assay [4], over 100 µM; in assay [5] it was 2.4 µM. The “Factor* (Resistance Factor = Ratio of dCK- on Wild-type CCRF-CEM)” value in assay [4] was over 42.

For `O=C(Nc1ccn([C@@H]2CO[C@H](CO)O2)c(=O)n1)OCc1ccc([N+](=O)[O-])cc1` [Compound 182, [1-(2-HYDROXYMETHYL- [1,3]DIOXOLAN-4-YL)-2- OXO-1,2-DIHYDRO- PYRIMIDIN-4-YL]- CARBAMIC ACID 4-NITRO- BENZYL ESTER], the IC50 is 0.13 µM in assay [1]; 0.22 µM in assay [2]; 0.21 µM in assay [3] (setting [6]); over 100 µM in assay [4]; 0.047 µM in assay [5]. Also, in assay [4], the “Factor* (Resistance Factor = Ratio of dCK- on Wild-type CCRF-CEM)” value is given as over 2100.

For `Cl.Nc1ccn([C@@H]2CO[C@H](COC(=O)OCc3ccc([N+](=O)[O-])cc3)O2)c(=O)n1` [Compound 183, CARBONIC ACID 4-(4- AMINO-2-OXO-2H- PYRIMIDIN-1-YL)- [1,3]DIOXOLAN-2- YLMETHYL ESTER 4-NITRO- BENZYL ESTER HYDROCHLORIDE SALT], the IC50 in assay [1] was 0.037 µM; in assay [2], 0.038 µM; in assay [3] (setting [6]), 0.12 µM; in assay [4] it was 45 µM; in assay [5], 0.018 µM. In addition, the “Factor* (Resistance Factor = Ratio of dCK- on Wild-type CCRF-CEM)” value in assay [4] is 2,500.

As to `Nc1ccn([C@@H]2CO[C@H](COC3(c4ccccc4)OC4OC(COC(=O)c5ccccc5)C(OC(=O)c5ccccc5)C(OC(=O)c5ccccc5)C4O3)O2)c(=O)n1` (stereo partly drawn) [Compound 184, 3,4,6-TRI-O-BENZOYL- 1,2-O-(1-(4-AMINO-2- OXO-2H-PYRIMIDIN-1-YL)- [1,3]DIOXOLAN-2- YLMETHYLOXY)-BENZYL)- □^˜D-GLUCOPYRANOSe], the IC50 in assay [1] amounted to 0.94 µM; in assay [2], 0.92 µM; in assay [3] (setting [6]), 1.1 µM; in assay [4], 40 µM; in assay [5], 0.81 µM. The “Factor* (Resistance Factor = Ratio of dCK- on Wild-type CCRF-CEM)” value in assay [4] amounted to 49.

Take `O=c1nc(NS(=O)(=O)c2ccc([N+](=O)[O-])cc2[N+](=O)[O-])ccn1[C@@H]1CO[C@H](CO)O1` [Compound 188, N-[1-(2-HYDROXYMETHYL- [1,3]DIOXOLAN-4-YL)-2- OXO-1,2-DIHYDRO- […]-4-YL]-2,4- DINITRO- BENZENESULFONAMIDE]: the IC50 is 0.097 µM in assay [1]; 3 µM in assay [2]; 2.4 µM in assay [3]; over 100 µM in assay [4]; 0.79 µM in assay [5].

Take `CC(C)(C)OC(=O)NCCCCCC(=O)Nc1ccn([C@@H]2CO[C@H](COC(=O)CCCCCNC(=O)OC(C)(C)C)O2)c(=O)n1` [Compound 192, 6-TERT!- BUTOXYCARBONYLAMINO- HEXANOIC ACID 4-[4-(6- TERT- BUTOXYCARBONYLAMINO- HEXANOYLAMINO)-2-OXO- 2H-PYRIMIDIN-1-YL]- [1,3]DIOXOLAN-2-YL METHYL ESTER]: the IC50 in assay [1] amounted to 0.29 µM; in assay [2], 0.0016 µM; in assay [3] (setting [6]) it was 0.4 µM; in assay [4], 48 µM; in assay [5] it was 0.0084 µM. Moreover, the “Factor* (Resistance Factor = Ratio of dCK- on Wild-type CCRF-CEM)” value in assay [4] is 5,714.

For the compound `CC(C)(C)OC(=O)NCCCCCC(=O)Nc1ccn([C@@H]2CO[C@H](CO)O2)c(=O)n1` [Compound 193, {5-[1-(2-HYDROXYMETHYL- [1,3]DIOXOLAN-4-YL)-2- OXO-1,2-DIHYDRO- PYRIMIDIN-4- YLCARBAMOYL]-PENTYL}- CARBAMIC ACID TERT- BUTYL ESTER], the IC50 in assay [1] is 0.64 µM; in assay [2] it was 0.16 µM; in assay [3] (setting [6]), 2 µM; in assay [4] it was over 100 µM; in assay [5] it was 0.059 µM. For the same compound, the “Factor* (Resistance Factor = Ratio of dCK- on Wild-type CCRF-CEM)” value in assay [4] is recorded as over 1695.

With `CC(C)(C)OC(=O)NCCCCCC(=O)OC[C@H]1OC[C@@H](n2ccc(N)nc2=O)O1` [Compound 194, 6-TERT!- BUTOXYCARBONYLAMINO- HEXANOIC ACID 4-(4- AMINO-2-OXO-2H- PYRIMIDIN-1-YL)- [1,3]DIOXOLAN-2- YLMETHYL ESTER], the IC50 in assay [1] came to 0.011 µM; in assay [2] it was 0.004 µM; in assay [3] (setting [6]) it was 0.041 µM; in assay [4] it was 10 µM; in assay [5], 0.0024 µM. The “Factor* (Resistance Factor = Ratio of dCK- on Wild-type CCRF-CEM)” value in assay [4] worked out at 4167.

In the case of `COc1ccc(C(OC)(OC)OC[C@H]2OC[C@@H](n3ccc(N)nc3=O)O2)cc1` [Compound 195, 4-AMINO-1-{2- [DIMETHOXY-(4-METHOXY- PHENYL)-METHOXYMETHYL]- [1,3]DIOXOLAN-4-YL}- 1#H!-PYRIMIDIN-2-ONE], the IC50 in assay [1] is 1.1 µM; in assay [2], 1.9 µM; in assay [3] (setting [6]), 1.5 µM; in assay [4], over 100 µM; in assay [5] it was 0.064 µM. In assay [4], the “Factor* (Resistance Factor = Ratio of dCK- on Wild-type CCRF-CEM)” value is listed as over 1563.

As for `CCOC(OCC)(OCC)OC[C@H]1OC[C@@H](n2ccc(N)nc2=O)O1` [Compound 199, 4-Amino-1-(2-triethoxymethoxymethyl-[1,3]dioxolan-4-yl)-1H-pyrimidin-2-one], the IC50 in assay [1] is 0.033 µM; in assay [2] it was 0.21 µM; in assay [3] (setting [6]), 0.0078 µM; in assay [4], over 100 µM; in assay [5], 0.0094 µM. Further, in assay [4], the “Factor* (Resistance Factor = Ratio of dCK- on Wild-type CCRF-CEM)” value is listed as over 10638.
